Test results from patent US20260146044A1, “AROMATIC COMPOUND, PHARMACEUTICAL COMPOSITION CONTAINING SAME, AND USE THEREOF” (Increland, priority 2023, published 2026).

Experiments:
[1] = tested on: secretion levels of IL-6 in PBMC cells; assay: Inhibition of R848-induced IL-6 secretion in PBMC (IL-6 ELISA); type: cell-based; conditions: human PBMC, 20 h compound pre-incubation, 24 h stimulation
Description: This experiment was carried out in RPMI 1640 medium containing 10% FBS/1% penicillin/streptomycin, with each of the compounds at an initial test concentration of 1 μM. The compound DMSO was dissolved to form a stock solution, which was gradiently diluted 4-fold with the culture medium to a 4× working solution concentration. The diluted solution was added to a 96-well plate with 50 μL per well. PBMC (batch No.: HPP20062307, Sichuan Hope Bio-tech Co., Ltd.) cells were counted, and diluted to a concentration of 2×10^6/mL. The diluted cells were added to the above compound-containing 96-well plate with 150 μL per well, fully mixed, and incubated in an incubator with 5% CO2 at 37° C. for 20 h. Then, R848 was further added until a final concentration of […], and the cells were further incubated in the incubator with 5% CO2 at 37° C. for additional 24 h. Then, after centrifugation at 2,000 rpm for 4 min, the supernatant was diluted 110×, and detected using an IL-6 ELISA kit. An OD450 value was read, and converted to an IL-6 concentration based on a standard curve, to calculate an IC50 value by fitting a dose-effect curve using GraphPad 5.0.

[2] = microsomes
Description: (§1) Blank incubation plates T60 and NCF60 were preheated for 10 min; liver microsome was diluted to 0.56 mg/mL in 100 mM phosphate buffer, 445 μL of the microsome working solution (0.56 mg/mL) was transferred to the preheated “incubation” plates T60 and NCF60, and then the incubation plates T60 and NCF60 were pre-incubated with continuous shaking at 37° C. for 10 min. 54 μL of the liver microsome was transferred to a blank plate, then 6 μL of a NAPDH cofactor was added to the blank plate, and then 180 μL of a quenching solution was added to the blank plate; 5 µL of a composite working solution (100 μM) was added to each of the microsome-containing incubation plates (T60 and NCF60), and the mixture was thoroughly mixed 3 times; 50 μL of a buffer was added to the NCF60 plate, and the mixture was thoroughly mixed 3 times. Timing was started; the plates were incubated with shaking at 37° C. for 60 min; and 180 μL of a quenching solution and 6 μL of the NAPDH cofactor were added to a quenching plate TO. The plates were ensured to be cooled to prevent evaporation. For the T60 plate, the mixture was thoroughly mixed 3 times, and 54 μL of the mixture was immediately transferred to the quenching plate at the time point of 0 min. Then, 44 μL of the NAPDH cofactor was added to the incubation plate (T60). Timing was started; and the plate was incubated with shaking at 37° C. for 60 min. At 5, 15, 30, 45, and 60 min, 180 μL of the quenching solution was added to the quenching plate, mixed once, and then 60 μL of sample was continuously transferred from the plate T60 to the quenching plate at each time point.
(§2) For NCF60, the mixture was mixed once, and at the time point of 60 min, 60 μL of sample was transferred from the NCF60 incubator to the quenching solution-containing quenching plate. All sampling plates were shaken for 10 min, then centrifuged at 4,000 rpm at 4° C. for 20 min. 80 µL of the supernatant was transferred to 240 μL of HPLC water, and mixed using a plate shaker for 10 min.

[3] = microsomes; remark: listed apart in the source
Description: as §1, §2

[4] = Pharmacokinetic experiment on SD rats (iv and ig); type: in vivo; conditions: Sprague-Dawley, rat, plasma; for Cmax: read-out: Peak plasma concentration Cmax
Description: Pharmacokinetic experiment on SD rats: in this experiment, two administration modes: oral intragastric administration and tail vein injection were selected. Each of the compounds of the present patented invention was administered at an oral dose of 5 mg/kg at an administration volume of 10 mL/kg. […] Appropriate amounts of Solutol and H2O were proportionally added sequentially, and fully mixed ultrasonically by vortexing, to prepare a clear drug solution at 0.5 mg/mL. ICL004-protodrug was administered by intravenous injection at a dose of 1 mg/kg at an administration volume of 10 mL/kg. Right before use, an appropriate amount of the drug was accurately weighed, to prepare a final volume of 20% PEG 400 and 80% Saline. Appropriate amounts of PEG 400 and Saline were proportionally added sequentially, and fully mixed ultrasonically by vortexing, to prepare a clear drug solution at 0.1 mg/mL.
6 SD rats, each with body weight of 180-220 g, were randomly grouped into 2 groups. After fasting but with free access to water overnight, each […] in the first group was administered by gavage. 200 μL of blood was sampled from its eye socket into an anticoagulant tube respectively at each time point of 15 min, 30 min, 1 h, 2 h, 4 h, 6 h, 8 h, and 24 h after administration. Within one h, each of the blood samples was centrifuged at 10,000 rpm at 4° C. for 20 min (the sample was stored on an ice box prior to the centrifugation), and the supernatant (i.e., the plasma) was stored in a refrigerator at −20° C. for LC-MS/MS analysis. 200 μL of blood was sampled from the eye socket of each […] in the second group into an anticoagulant tube respectively at each time point of 5 min, 15 min, 30 min, 1 h, 2 h, 4 h, 8 h, and 24 h after administration by intravenous injection. Within one h, each of the blood samples was centrifuged at 10,000 rpm at 4° C. for 20 min (the blood sample was stored on an ice box prior to the centrifugation), and the supernatant, i.e., the plasma, was stored in a refrigerator at −20° C. for LC-MS/MS analysis.

[5] = Pharmacokinetic experiment on mice (iv and ig); type: in vivo; conditions: mouse, plasma, BALB/c Mice; for Cmax: read-out: Peak plasma concentration Cmax
[6] = Metabolic stability in human liver microsome; conditions: liver microsomes
Description: as §1, §2

[7] = tested on: secretion levels of IL-6 in PBMC cells; assay: Inhibition of LPS+IL-1β-induced IL-6 secretion in PBMC (IL-6 ELISA); type: cell-based; conditions: human PBMC, 24 h compound pre-incubation, 20 h stimulation
Description: This experiment was carried out in RPMI 1640 medium containing 10% FBS/1% penicillin/streptomycin, with each of the compounds at an initial test concentration of 1 μM. The compound DMSO was dissolved to form a stock solution, which was gradiently diluted 5-fold with the culture medium to a 4× working solution concentration. The diluted solution was added to a 96-well plate with 50 μL per well. PBMC (batch No.: HPP20062307, Sichuan Hope Bio-tech Co., Ltd.) cells were counted, and diluted to a concentration of 2×10^6/mL. The diluted cells were added to the above compound-containing 96-well plate with 150 μL per well, fully mixed, and incubated in an incubator with 5% CO2 at 37° C. for 24 h. Then, LPS and […] were further added to final concentrations of 10 ng/mL and 20 ng/mL, respectively, and the cells were further incubated in the incubator with 5% CO2 at 37° C. for 20 h. Then, after centrifugation at 2,000 rpm for 4 min, the supernatant was diluted 110×, and detected using an IL-6 ELISA kit. An OD450 value was read, and converted to an IL-6 concentration based on a standard curve, to calculate an IC50 value by fitting a dose-effect curve using GraphPad 5.0.

[8] = Metabolic stability in mouse liver microsome; conditions: liver microsomes
Description: as §1, §2

Human liver microsome (t1/2, min) [2]	Mouse liver microsome (t1/2, min) [3]	AUC ([4]; iv, 1.00 mg/kg)	AUC(0-inf) ([4]; iv, 1.00 mg/kg)	Cmax ([4]; iv, 1.00 mg/kg)	bioavailability ([4]; po, ig 5.00 mg/kg vs iv 1.00 mg/kg, read-out: Oral bioavailability Fobs (%))	AUC ([4]; po, ig, 5.00 mg/kg)	AUC(0-inf) ([4]; po, ig, 5.00 mg/kg)	Cmax ([4]; po, ig, 5.00 mg/kg)	bioavailability ([5]; po, ig 3.00 mg/kg vs iv 1.00 mg/kg, read-out: Oral bioavailability Fobs (%))	AUC ([5]; po, ig, 3.00 mg/kg)	AUC(0-inf) ([5]; po, ig, 3.00 mg/kg)	Cmax ([5]; po, ig, 3.00 mg/kg)	AUC ([5]; iv, 1.00 mg/kg)	AUC(0-inf) ([5]; iv, 1.00 mg/kg)	Cmax ([5]; iv, 1.00 mg/kg)	half-life at 1 µM [6]	half-life at 1 µM [8]	SMILES	IC50 [1]	IC50 [7]
117.1 min	128.7 min																	COc1cc2nn([C@H]3CC[C@H](CN4CCC(c5cccc6c5c(C)nn6C5CCC(=O)NC5=O)CC4)CC3)cc2cc1NC(=O)c1cccc(C(F)(F)F)n1 (stereo partly drawn) [TM-25]	28 nM	
		2250 ng·h/mL	2300 ng·h/mL	530 ng/mL	91.9%	13800 ng·h/mL	10600 ng·h/mL	1100 ng/mL	92.1%	135000 ng·h/mL	289 µg·h/mL	12400 ng/mL	63100 ng·h/mL	104 µg·h/mL	6800 ng/mL	77.9 min	46.9 min	Cc1nn(C2CCC(=O)NC2=O)c2cccc(N3CCN(C[C@H]4CC[C@H](n5cc6cc(NC(=O)c7cnn8cccnc78)c(N7CCOCC7)cc6n5)CC4)CC3)c12 (stereo partly drawn) [TM-33]	13 nM	10.2 nM
